# Source: US20060166901A1, “Compositions comprising O-acetylsalicyl derivatives of aminocarbohydrates and amino acids” (priority 2005, published 2006)
# Columns and labels:
# [1] = patients, recent studies; cited from earlier work
# [2] = test system: osteoarthritis of both knees; assay: Oral administration to a subject with osteoarthritis of both knees, relief of knee pain and adverse reactions; format: in vivo, human; settings: earlier treatment
# Experimental: The subject took an oral dose of 100 mg N—(O-acetylsalicyl)-L-tyrosine ethyl ester.
# Subject, weight 90 kg, had 4 year history of osteoarthritis of both knees which was confirmed by X-ray and MRI showing diminished articular space. Symptoms of pain upon walking and at rest, as well as tenderness to palpation, had been consistently present, varying in intensity from moderate to severe.
# […] […] The subject did intensive physical activities during the next 10 hours that consisted of farming manual labor that included climbing up and down the banks of a pond to cut off cattail weeds at root level, and manually carrying stalks up the pond bank to level ground. Other physical exertions included numerous mounting and demounting from a farm tractor that pulled a trailer containing cattail weeds to dumping sites.
# [3] = nonsteroidal anti-inflammatory agents
Compound,rates of heart attack (cardiac arrest) versus the control group [1],"relief of osteoarthritis symptoms (subject's history) [2, 3]",other results
Cc1ccc(-c2cc(C(F)(F)F)nn2-c2ccc(S(N)(=O)=O)cc2)cc1 [celecoxib],higher rates of heart attack,,
COc1ccc2cc([C@H](C)C(=O)O)ccc2c1 [naproxen],,had not been relieved,
C[C@]12C=CC(=O)C=C1CC[C@@H]1[C@@H]2C(=O)C[C@@]2(C)[C@H]1CC[C@]2(O)C(=O)CO [prednisone],,,"relief of osteoarthritis symptoms (subject's history) ([2]; oral, 10-30 mg daily): relieved incompletely"
"CS(=O)(=O)c1ccc(C2=C(c3ccccc3)C(=O)OC2)cc1 [rofecoxib, Rofecoxib]",higher rates of heart attack,,
CC(C)Cc1ccc(C(C)C(=O)O)cc1 (centres unmarked) [ibuprofen],,had not been relieved,
